Test results: patent US20230158158A1, “PYRAZOLO QUINAZOLINE DERIVATIVE COMPOUNDS INDUCING SELECTIVE DEGRADATION OF PLK1” (UPPTHERA, priority 2020, published 2023)

Target: T1, PLK1 (Homo sapiens, UniProt P53350)
T1 construct: endogenous in cells; host or cells: HeLa
Assay: PLK1 protein degradation by western blotting in HeLa cells
Type: cell-based
Conditions: thymidine block and release, compound 100 nM, 6 hours, PLK1/GAPDH ratio, read-out: PLK1 protein degradability (Dmax)
Procedure: The HeLa cell line was purchased from Korea Cell Line Bank (KCLB), Seoul, Korea. The passage in cell culture was maintained at P115 to P125.
2×10^5 cells were seeded for each well of a 12-well plate (SPL), and the cells were cultured in the culture medium in a total volume of 2 ml.
The compounds of Examples were completely dissolved in DMSO and used in the experiment, and thymidine was completely dissolved in DW and used in the experiment. For thymidine block, the products were treated with 2 mM of thymidine (Sigma-Aldrich Cat. No. T9250-5G) and then incubated for 24 hours.
For release and chemical treatment, the medium was suctioned and washed 3 times with 1×PBS. Complete media was added, followed by incubation for 4 hours in a CO2 incubator. Each compound was treated according to the concentration of 100 nM and then incubated for 6 hours again.
For SDS-PAGE and Western blotting, 1×RIPA lysis buffer (Rockland, Cat. No. MB-030-0050; Lot no. 39751), 100× Protease Inhibitor Cocktail (Quartett, Cat. No. PPI1015; Lot no. PC050038424), Pierce ? BCA protein assay kit (ThermoScientific, Cat. No. 23225; Lot no. UC276876), albumin standard (ThermoScientific, Cat. No. 23209; Lot no. UB269561), 4-15% Mini-PROTEAN TGX stain-free gel (Bio-rad, Cat. No. 4568085; Lot no. L007041B), 10× Tris/Glycine/SDS buffer (Bio-rad, Cat. No. 1610732; Lot no. 10000044375B); 10×TBS (Bio-rad, Cat. No. 1706435; Lot no. 1000045140B), 10% Tween 20 (Cat. No. 1610781; Lot no. L004152B), Color protein standard broad range (NEB, Cat. No. P7719S; Lot no. 10040349), 4× Laemmli sample buffer (Bio-rad, Cat. No. 1610747; Lot no. L004133B), β-mercaptoethanol (Sigma-Aldrich, Cat. No. M3148; Lot no. 60-24-2), SuperBlock ? T20 (TBS) blocking buffer (ThermoScientific, Cat. No. 37536; Lot no. UC282578), 1M sodium azide solution (Sigma-Aldrich, Cat. No. 08591-1 mL-F; Lot no. BCBV4989), α-Rabbit pAb to Ms IgG (abcam, Cat. No. ab97046; Lot no. GR3252115-1), α-Goat pAb to Rb IgG (CST, Cat. No. 7074S; Lot no. 28), α-GAPDH (abeam, Cat. No. ab8245; Lot no. GR3275542-2), α-Plk1 (CST, Cat. No. 208G4), α-BRD4 (CST, Cat. No. 13440S), ECL ? Prime western blotting reagents (GE Healthcare, Cat. No. RPN2232; Lot no. 17001655), Ponceau S solution (Sigma-Aldrich, Cat. No. P7170; Lot no. SLBV4112), Difco ? […]
Then, a standard curve was obtained using the BCA assay, and the protein mass in the lysate was quantified by substituting the curve equation. The mixture was incubated at 37° C. for 30 minutes using 20 μL of standard or sample solution, and 200 μL of BCA or Bradford solution, and measured at 562 nm absorbance. Samples were prepared by adding 4× sample buffer so that the quantity of protein added to each well was 15 μg. […]

T1 sequence (P53350 whole entry): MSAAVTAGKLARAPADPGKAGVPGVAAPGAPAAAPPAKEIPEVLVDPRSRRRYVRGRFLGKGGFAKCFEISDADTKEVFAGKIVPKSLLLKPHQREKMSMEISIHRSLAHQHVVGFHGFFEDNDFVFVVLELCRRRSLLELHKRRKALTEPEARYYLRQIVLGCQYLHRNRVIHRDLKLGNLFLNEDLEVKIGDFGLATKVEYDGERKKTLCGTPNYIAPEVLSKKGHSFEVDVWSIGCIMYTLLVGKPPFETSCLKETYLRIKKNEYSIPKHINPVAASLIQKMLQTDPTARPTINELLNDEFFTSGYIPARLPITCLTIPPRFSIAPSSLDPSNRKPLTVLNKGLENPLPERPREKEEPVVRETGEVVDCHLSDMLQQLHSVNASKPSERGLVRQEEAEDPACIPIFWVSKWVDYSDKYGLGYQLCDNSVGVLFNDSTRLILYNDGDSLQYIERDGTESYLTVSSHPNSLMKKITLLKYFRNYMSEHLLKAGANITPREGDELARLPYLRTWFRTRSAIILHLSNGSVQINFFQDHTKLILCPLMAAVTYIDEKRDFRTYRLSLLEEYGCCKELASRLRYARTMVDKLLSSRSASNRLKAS

Dmax at 0.1 µM	SMILES
≥ 60%	COc1c(Nc2ncc3c(n2)-c2c(c(C(N)=O)nn2C)CC3)cc(N2CCN(C)CC2)cc1C(=O)NCCOCCOCCNc1cccc2c1C(=O)N(C1CCC(=O)NC1=O)C2=O (stereo not shown) [Compound 2, 8-((3-((2-(2-(2-((2-(2,6-dioxopiperidin-3-yl)-1,3-dioxoisoindolin-4-yl)amino)ethoxy)ethoxy)ethyl)carbamoyl)-2-methoxy-5-(4-methylpiperazin-1-yl)phenyl)amino)-1-methyl-4,5-dihydro-1H-pyrazolo[4,3-h]quinazoline-3-carboxamide]
≥ 60%	COc1c(Nc2ncc3c(n2)-c2c(c(C(N)=O)nn2C)CC3)cc(N2CCN(C)CC2)cc1C(=O)NCCOCCOCCOCCNc1cccc2c1C(=O)N(C1CCC(=O)NC1=O)C2=O (stereo not shown) [Compound 3, 8-((3-((2-(2-(2-(2-((2-(2,6-dioxopiperidin-3-yl)-1,3-dioxoisoindolin-4-yl)amino)ethoxy)ethoxy)ethoxy)ethyl)carbamoyl)-2-methoxy-5-(4-methylpiperazin-1-yl)phenyl)amino)-1-methyl-4,5-dihydro-1H-pyrazolo[4,3-h]quinazoline-3-carboxamide]
≥ 60%	Cn1nc(C(N)=O)c2c1-c1nc(Nc3cc(N4CCN(CCOCCOCCOCCOCCNc5cccc6c5C(=O)N(C5CCC(=O)NC5=O)C6=O)CC4)ccc3OC(F)(F)F)ncc1CC2 (stereo not shown) [Compound 7, 8-((5-(4-(14-((2-(2,6-dioxopiperidin-3-yl)-1,3-dioxoisoindolin-4-yl)amino)-3,6,9,12-tetraoxatetradecyl)piperazin-1-yl)-2-(trifluoromethoxy)phenyl)amino)-1-methyl-4,5-dihydro-1H-pyrazolo[4,3-h]quinazoline-3-carboxamide]
≥ 60%	COc1c(Nc2ncc3c(n2)-c2c(c(C(N)=O)nn2C)CC3)cc(N2CCN(C)CC2)cc1C(=O)NCCOCCOCC(=O)N[C@H](C(=O)N1C[C@H](O)C[C@H]1C(=O)NCc1ccc(-c2scnc2C)cc1)C(C)(C)C [Compound 9, 8-((3-((2-(2-(2-(((S)-1-((2S,4R)-4-hydroxy-2-((4-(4-methylthiazol-5-yl)benzyl)carbamoyl)pyrrolidin-1-yl)-3,3-dimethyl-1-oxobutan-2-yl)amino)-2-oxoethoxy)ethoxy)ethyl)carbamoyl)-2-methoxy-5-(4-methylpiperazin-1-yl)phenyl)amino)-1-methyl-4,5-dihydro-1H-pyrazolo[4,3-h]quinazoline-3-carboxamide]
